This note sets out measurements from ChEMBL document CHEMBL3045396, “Easy Preparation of Methyl 7-epi-Jasmonate and Four Stereoisomers of Methyl Cucurbate, and Assessment of the Stereogenic Effect of Jasmonate on Phytohormonal Activities” (Biosci Biotechnol Biochem, 1999).

The subject of one test is Lepidium sativum. The test is described as follows: Phytohormonal activity against Lepidium sativum assessed as inhibition of seed germination at 100 to 1000 uM after 2 days relative to control. It counts as functional, organism-based.
A further test concerns Oryza sativa. Put plainly: Phytohormonal activity against Oryza sativa (rice) seedlings assessed as growth inhibition of second leaf sheath at 1 to 300 uM after 5 days relative to control. The format is functional, organism-based.

SMILES strings stand for the structures. Activity calls are given as the source filed them. The calls are words filed in the database; no cut-off is given here.

For `CC/C=C\C[C@H]1[C@@H](CC(=O)OC)CC[C@@H]1O`, in the test on Lepidium sativum, the inhibition entry was “Active”. Besides, the “growth inhibition (GI)” value in the test with Oryza sativa is “Active”.

As for `CC/C=C\C[C@H]1C(=O)CC[C@@H]1CC(=O)OC` (racemic), the inhibition entry in the test on Lepidium sativum was “Active”. Further, in the test with Oryza sativa, the “growth inhibition (GI)” value was “Active”.

For the molecule `CC/C=C\C[C@H]1C(=O)CC[C@@H]1CC(=O)O`, the “growth inhibition (GI)” value in the test on Oryza sativa was “Active”.

As for `CC/C=C\C[C@@H]1C(=O)CC[C@@H]1CC(=O)OC`, the inhibition result in the test with Lepidium sativum is “Active”. For the same molecule, the “growth inhibition (GI)” value with Oryza sativa is “Active”.

Regarding `CC/C=C\C[C@H]1[C@@H](CC(=O)O)CC[C@@H]1O`, in the test on Oryza sativa, the “growth inhibition (GI)” value is “inactive”.

As for `CC/C=C\C[C@H]1[C@@H](CC(=O)OC)CC[C@H]1O`, in the test with Lepidium sativum, the inhibition entry was “Active”. In addition, the “growth inhibition (GI)” value in the test with Oryza sativa was “Active”.

`CC/C=C\C[C@@H]1[C@@H](CC(=O)OC)CC[C@@H]1O`: the inhibition result in the test on Lepidium sativum is “inactive”. Further, the “growth inhibition (GI)” value in the test with Oryza sativa is “inactive”.

As to `CC/C=C\C[C@@H]1[C@@H](CC(=O)OC)CC[C@H]1O`, the inhibition entry with Lepidium sativum is “inactive”. Also, in the test with Oryza sativa, the “growth inhibition (GI)” value is “inactive”.
